Reference: patent publication EP4741383A1, “COMPOUND AND USE THEREOF AS ANTI-CANCER DRUG” (Tyligand Bioscience (Shanghai) Limited, priority 2023, dated 2025)

How the values were obtained:
Format in all cases: biochemical
CDC14A = biological target: T1, CDC14A (Homo sapiens, UniProt Q9UNH5); assay: Tyrosine phosphatase selectivity (pNPP substrate), CDC14A; details: for IC50: CDC14A, pNPP substrate; for IC50PTP/IC50SHP2 CDC14A: selectivity ratio CDC14A over SHP2
T1 construct: made in house; host or cells: E. coli
T1 sequence (Q9UNH5 1-594): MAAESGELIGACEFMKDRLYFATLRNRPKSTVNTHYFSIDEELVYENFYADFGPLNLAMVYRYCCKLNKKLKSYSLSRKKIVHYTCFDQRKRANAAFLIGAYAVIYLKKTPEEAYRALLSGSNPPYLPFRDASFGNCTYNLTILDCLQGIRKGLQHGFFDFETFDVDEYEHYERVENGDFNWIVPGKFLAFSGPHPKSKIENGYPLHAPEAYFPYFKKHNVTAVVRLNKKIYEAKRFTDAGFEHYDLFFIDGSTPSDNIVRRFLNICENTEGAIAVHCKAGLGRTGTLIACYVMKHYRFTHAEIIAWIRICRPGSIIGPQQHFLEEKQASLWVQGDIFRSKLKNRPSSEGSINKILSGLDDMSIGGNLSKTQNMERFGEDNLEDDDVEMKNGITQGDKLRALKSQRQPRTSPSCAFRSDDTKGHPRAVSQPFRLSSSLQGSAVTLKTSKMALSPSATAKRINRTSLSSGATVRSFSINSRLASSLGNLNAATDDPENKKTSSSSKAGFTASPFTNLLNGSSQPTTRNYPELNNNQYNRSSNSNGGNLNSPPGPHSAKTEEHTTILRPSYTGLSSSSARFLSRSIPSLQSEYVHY
Method: (§1) This experiment evaluated the selectivity of the disclosed compounds against tyrosine phosphatases, including SHP1, HePTP, Laforin, LMWPTP, LYP, PTP1B, PRL2, SSU72, VHR, FAP1, STEP, CDC14A, CD45, MEG2, and PP5, all expressed and purified from E. coli.
(§2) Phosphatase activity was measured using p-nitrophenyl phosphate (pNPP) (Fisher Scientific) as the substrate in 50 mM 3,3-dimethylglutaric acid buffer (pH 7.0, containing 1 mM EDTA), with ionic strength adjusted to 0.15 M with NaCl. […] After 10-60 minutes, the reaction was quenched by adding 20 µL of 5 N NaOH. Wells without enzyme were used as controls for correction. The amount of the product, p-nitrophenol, was determined by measuring the absorbance at 405 nm using a Spectra MAX340 microplate spectrophotometer (Molecular Devices), with a molar extinction coefficient of 18000 M^-1cm^-1.
(§3) Data were analyzed using GraphPad Prism software. Dose-response curves were obtained by fitting data using the nonlinear S-curve regression Dose-response-inhibition equation, and IC50 values were calculated.

PTP1B = biological target: T2, PTP1B (Homo sapiens, UniProt P18031); assay: Tyrosine phosphatase selectivity (pNPP substrate), PTP1B; details: for IC50: PTP1B, pNPP substrate; for IC50PTP/IC50SHP2 PTP1B: selectivity ratio PTP1B over SHP2
T2 construct: made in house; host or cells: E. coli
T2 sequence (P18031 1-435): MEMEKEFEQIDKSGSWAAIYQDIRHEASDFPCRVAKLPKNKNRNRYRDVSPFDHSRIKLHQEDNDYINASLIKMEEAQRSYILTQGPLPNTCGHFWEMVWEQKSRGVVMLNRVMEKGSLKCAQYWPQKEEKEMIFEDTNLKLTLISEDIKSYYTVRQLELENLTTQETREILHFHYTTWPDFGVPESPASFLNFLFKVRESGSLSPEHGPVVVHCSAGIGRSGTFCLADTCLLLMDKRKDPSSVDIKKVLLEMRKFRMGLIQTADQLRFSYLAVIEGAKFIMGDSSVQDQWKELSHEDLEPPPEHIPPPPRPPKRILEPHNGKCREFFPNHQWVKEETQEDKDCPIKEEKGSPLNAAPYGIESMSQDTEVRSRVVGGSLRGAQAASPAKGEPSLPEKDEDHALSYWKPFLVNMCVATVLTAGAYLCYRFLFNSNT
Method: as §1, §2, §3

PP5 = biological target: T3, PP5 (Homo sapiens, UniProt P53041); assay: Tyrosine phosphatase selectivity (pNPP substrate), PP5; details: for IC50: PP5, pNPP substrate; for IC50PTP/IC50SHP2 PP5: selectivity ratio PP5 over SHP2
T3 construct: made in house; host or cells: E. coli
T3 sequence (P53041 1-499): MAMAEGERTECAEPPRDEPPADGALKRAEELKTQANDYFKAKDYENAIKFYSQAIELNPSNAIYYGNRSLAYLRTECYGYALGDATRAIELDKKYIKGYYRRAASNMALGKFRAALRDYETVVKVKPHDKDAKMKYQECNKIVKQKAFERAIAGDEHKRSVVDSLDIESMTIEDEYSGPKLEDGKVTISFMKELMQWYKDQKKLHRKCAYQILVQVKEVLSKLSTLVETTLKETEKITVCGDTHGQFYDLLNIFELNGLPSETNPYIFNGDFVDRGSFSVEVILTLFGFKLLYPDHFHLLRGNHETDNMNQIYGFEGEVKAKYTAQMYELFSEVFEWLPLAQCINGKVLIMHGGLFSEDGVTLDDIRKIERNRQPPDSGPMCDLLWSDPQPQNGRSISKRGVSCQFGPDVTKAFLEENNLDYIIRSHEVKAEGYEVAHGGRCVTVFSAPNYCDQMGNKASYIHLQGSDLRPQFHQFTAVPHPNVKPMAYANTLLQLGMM
Method: as §1, §2, §3

MEG2 = biological target: T4, MEG2 (Homo sapiens, UniProt P43378); assay: Tyrosine phosphatase selectivity (pNPP substrate), MEG2; details: for IC50: MEG2, pNPP substrate; for IC50PTP/IC50SHP2 MEG2: selectivity ratio MEG2 over SHP2
T4 construct: made in house; host or cells: E. coli
T4 sequence (P43378 1-593): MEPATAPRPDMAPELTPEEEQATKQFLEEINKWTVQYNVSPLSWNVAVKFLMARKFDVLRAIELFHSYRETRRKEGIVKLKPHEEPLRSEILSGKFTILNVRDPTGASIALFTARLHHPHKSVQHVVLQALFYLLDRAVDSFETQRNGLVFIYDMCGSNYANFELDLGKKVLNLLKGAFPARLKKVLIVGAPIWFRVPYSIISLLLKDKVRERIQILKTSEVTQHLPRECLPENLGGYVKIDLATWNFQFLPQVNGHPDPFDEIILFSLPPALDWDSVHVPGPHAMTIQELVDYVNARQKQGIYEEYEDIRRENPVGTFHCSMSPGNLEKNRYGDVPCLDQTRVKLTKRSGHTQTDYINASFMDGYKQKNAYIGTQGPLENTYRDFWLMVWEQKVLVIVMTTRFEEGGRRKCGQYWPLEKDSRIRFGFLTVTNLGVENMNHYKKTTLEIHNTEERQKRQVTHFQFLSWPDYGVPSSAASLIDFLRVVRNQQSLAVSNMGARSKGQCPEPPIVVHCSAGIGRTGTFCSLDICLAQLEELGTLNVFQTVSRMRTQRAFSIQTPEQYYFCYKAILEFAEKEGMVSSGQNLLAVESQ
Method: as §1, §2, §3

Structure (SMILES) | IC50 (CDC14A) [µM] | IC50PTP/IC50SHP2 CDC14A (CDC14A) | IC50 (PTP1B) [µM] | IC50PTP/IC50SHP2 PTP1B (PTP1B) | IC50 (PP5) [µM] | IC50PTP/IC50SHP2 PP5 (PP5) | IC50 (MEG2) [µM] | IC50PTP/IC50SHP2 MEG2 (MEG2)
O=C(Nc1ccc(-c2oc3cc(F)c(-c4nnn[nH]4)cc3c2C2CCC2)cc1)C(=O)Nc1ccc(N2CCC3(CCOC3)CC2)cc1 [Example 125] | > 100 | 1960.8 | 6.28 | 123.1 | > 100 | 1960.8 | 8.54 | 167.5
Cn1c(-c2cccc(NC(=O)C(=O)Nc3ccc(-c4ccsc4)cc3)c2)c(I)c2cc(C(=O)O)c(O)cc21 [Example 11a-1, reference compound] | 16 | 148 | 2.29 | 21.2 | – | – | – | –
O=C(Nc1ccc(-c2cc3cc(F)c(-c4nnn[nH]4)cc3n2C2CCC2)cc1)C(=O)Nc1ccc(N2CCOCC2)cc1 [Example 47] | – | 1587 | 0.37 | 5.8 | > 100 | 1587 | 0.99 | 15.7
O=C(Nc1ccc(-c2ccsc2)cc1)C(=O)Nc1ccc(-c2cc3cc(F)c(-c4nnn[nH]4)nc3n2C2CCC2)cc1 [Example 132] | > 50 | 1851.9 | 2.7 | 100 | > 50 | 1851.9 | 15.1 | 559.3
Cn1cc(-c2ccc(NC(=O)C(=O)Nc3ccc(-c4cc5cc(F)c(-c6nnc(C(F)(F)F)[nH]6)cc5n4C4CCC4)cc3)cc2)cn1 [Example 124] | > 100 | 139.7 | > 100 | 139.7 | > 100 | 139.7 | > 100 | 139.7
O=C(Nc1ccc(-c2ccsc2)cc1)C(=O)Nc1ccc(-c2cc3ccc(-c4nnn[nH]4)nc3n2C2CCC2)cc1 [Example 129] | 34.6 | 586.4 | 8.5 | 144.1 | > 50 | 847.5 | 7.2 | 122.0
O=C(Nc1ccc(-c2ccsc2)cc1)C(=O)Nc1ccc(-c2cc3cnc(-c4nnn[nH]4)nc3n2C2CCC2)cc1 [Example 131] | > 50 | 1923.1 | 4.7 | 180.8 | > 50 | 1923.1 | 9.9 | 380.8

Continued, values first:

IC50 (CDC14A) [µM] | IC50PTP/IC50SHP2 CDC14A (CDC14A) | IC50 (PTP1B) [µM] | IC50PTP/IC50SHP2 PTP1B (PTP1B) | IC50 (PP5) [µM] | IC50PTP/IC50SHP2 PP5 (PP5) | IC50 (MEG2) [µM] | IC50PTP/IC50SHP2 MEG2 (MEG2) | Structure (SMILES)
– | 1388 | 0.47 | 6.5 | > 100 | 1388 | 1.66 | 23.0 | O=C(Nc1ccc(-c2cc3cc(F)c(-c4nnn[nH]4)cc3n2C2CCC2)cc1)C(=O)Nc1ccc(N2CC3COCC3C2)cc1 (centres unmarked) [Example 114]
– | 2941 | 0.39 | 11.4 | > 100 | 2941 | 1.77 | 52.0 | O=C(Nc1ccc(-c2cc3cc(F)c(-c4nnn[nH]4)cc3n2C2CCC2)cc1)C(=O)Nc1ccc(N2CCC3(CCOC3)CC2)cc1 [Example 67]
> 100 | 709.2 | 1.2 | 8.5 | > 100 | 709.2 | 2.41 | 17.1 | Cn1cc(-c2ccc(NC(=O)C(=O)Nc3ccc(-c4cc5cc(F)c(-c6noc(=O)[nH]6)cc5n4C4CCC4)cc3)cc2)cn1 [Example 123]
> 50 | 1724.1 | 3.2 | 110.3 | > 50 | 1724.1 | 22.1 | 762.1 | O=C(Nc1ccc(-c2ccsc2)cc1)C(=O)Nc1ccc(-c2cc3cc(F)c(-c4nnn[nH]4)cc3n2C2CCC2)cc1 [Example 4]
> 25 | 520.8 | 1.5 | 31.3 | > 25 | 520.8 | 0.89 | 18.5 | CC1(n2c(-c3ccc(NC(=O)C(=O)Nc4ccc(N5CCC6(CCOC6)CC5)cc4)cc3)cc3cc(F)c(-c4nnn[nH]4)cc32)CCC1 [Example 68]
